Experimental data as given in patent US20240010684A1, “MASP INHIBITORY COMPOUNDS AND USES THEREOF” (BAYER AKTIENGESELLSCHAFT, priority 2020, published 2024).
*1 amine or outer side, *2 acyl side, *3 side chain or, on linkers, in order; H or OH if unused. Where a SMILES comes first, the peptide text is derived from it. Bridges are numbered along the chain shown (N, C = ends). [ ]: non-standard residue; d: D form. Oic = O=C(O)[C@@H]1C[C@@H]2CCCC[C@@H]2N1; Adipoyl = O=C(CCCCC(=O)[*:2])[*:1]; tBuAla = CC(C)(C)C[C@H](N)C(=O)O; Pen = CC(C)(S)[C@H](N)C(=O)O; Dap = NC[C@H](N)C(=O)O; Ahx = NCCCCCC(=O)O; Sar = CNCC(=O)O

Tests used:
rat MASP1 = rat MASP1 (Rattus norvegicus (Rat), UniProt Q8CHN8); test: Biochemical rat MASP1 assay (FRET substrate); conditions: Average IC50; recombinant rat MASP1; read-out: rat MASP1 IC50
Sequence of rat MASP1 (Q8CHN8 other isoform, or with tags, fused parts or gaps): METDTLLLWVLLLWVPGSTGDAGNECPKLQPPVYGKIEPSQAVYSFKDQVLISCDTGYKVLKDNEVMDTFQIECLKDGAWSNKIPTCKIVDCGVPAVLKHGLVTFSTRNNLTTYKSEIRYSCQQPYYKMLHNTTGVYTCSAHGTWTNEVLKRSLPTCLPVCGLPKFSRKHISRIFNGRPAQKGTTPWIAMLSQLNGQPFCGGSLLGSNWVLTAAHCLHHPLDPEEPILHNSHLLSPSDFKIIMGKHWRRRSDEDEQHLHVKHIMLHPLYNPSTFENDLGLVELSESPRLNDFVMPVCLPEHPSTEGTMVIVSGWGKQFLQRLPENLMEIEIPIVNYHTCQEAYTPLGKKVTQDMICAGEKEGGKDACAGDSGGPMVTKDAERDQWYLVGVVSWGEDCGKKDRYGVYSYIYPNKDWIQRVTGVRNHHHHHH
Source text: A truncated cDNA sequence of rat MASP1encoding the fragment corresponding to the amino acids 302-704 with a C-terminal His Tag and N-terminal Ig-kappa secretion signal (SEQ ID No: 4) was subcloned into the mammalian expression vector pcDNA3.1 (Invitrogen).
(§1) The MASP1 or MASP2 expression vectors were transfected into the HEK293 (ATCC No. CRL-1573) cell line using Lipofectamine LTX® Reagent (Thermo-Fischer), as described by the manufacturer. The mature form of the recombinant rat MASP1 and MASP2 proteases were secreted into the culture medium. The MASP1 and MASP2 proteins were purified from the conditioned media by affinity chromatography on Ni-NTA Superflow resin (Qiagen) as described by the manufacturer.
4.2 Biochemical Rat MASP1 Assay.
Recombinant rat MASP1 enzyme produced in the HEK 293 cells was diluted in the reaction buffer (50 mM HEPES pH 8,0; 100 mM NaCl; 0,01% CHAPS; 0.5 mM Gluthathione) to the concentration of 4 nM and 25 μl was transferred into each single well of 384-well white microtiter plate (Greiner Bio One 781075). 1 μl of the inhibitor compound solution (dissolved in DMSO, at the corresponding concentration) or pure DMSO as a control was added to the same wells. The enzymatic reaction was initiated by addition of 25 μl of 40 μM solution of the FRET substrate Dabcyl-[…]-Glu(Edans)-NH2; (Dabcyl-4-((4-(dimethylamino)phenyl)azo)benzoic acid; Edans-5-[(2-Aminoethyl) amino]naphthalene-1-sulfonyl; custom synthesis by Jerini Peptide Technologies, Berlin) in the reaction buffer. The microtiter plate was incubated for 60-120 min at the temperature of 32 C. The increase of fluorescence intensity was measured in appropriate fluorescence plate reader (e.g. TECAN Ultra) using excitation wavelength of 340 nm and emission wavelength of 490 nm. IC50 values were calculated from percentage of inhibition of rat […] activity as a function of test compound concentration.

rat MASP2 = rat MASP2 (Rattus norvegicus (Rat), UniProt Q9JJS8); test: Biochemical rat MASP2 assay (FRET substrate); conditions: Average IC50; recombinant rat MASP2; read-out: rat MASP2 IC50
Sequence of rat MASP2 (Q9JJS8 other isoform, or with tags, fused parts or gaps): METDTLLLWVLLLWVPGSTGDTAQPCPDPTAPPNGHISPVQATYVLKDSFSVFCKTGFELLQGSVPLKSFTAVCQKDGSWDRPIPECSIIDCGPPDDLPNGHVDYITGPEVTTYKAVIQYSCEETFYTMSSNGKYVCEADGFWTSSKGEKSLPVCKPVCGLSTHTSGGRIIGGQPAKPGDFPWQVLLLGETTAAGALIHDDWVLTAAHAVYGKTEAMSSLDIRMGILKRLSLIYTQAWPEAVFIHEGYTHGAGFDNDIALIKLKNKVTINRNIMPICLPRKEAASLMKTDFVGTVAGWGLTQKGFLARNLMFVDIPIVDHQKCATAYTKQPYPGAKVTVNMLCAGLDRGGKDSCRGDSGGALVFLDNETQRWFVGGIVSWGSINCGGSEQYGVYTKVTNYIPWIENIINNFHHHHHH
Source text: as §1, with “The mature form of the recombinant rat MASP1 and MASP2 proteases were secreted into the culture medium.” left out, “M[…]” for “MASP2 proteins”

[1] = system: Human C3-DEPOSITION SERUM; test: C3 deposition assay, human serum on mannan-coated plates; assay type: biochemical; conditions: Average IC50, read-out: Human C3-DEPOSITION SERUM IC50
In short: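 Plates coated overnight at 4° C with S. cerevisiae mannan (10 μg/mL, pH 9.6), blocked with 1% BSA in TBS 2 h at 37° C; washes in TBS/0.05% Tween 20/5 mM CaCl2. Antibodies diluted in wash buffer with 0.5% BSA. Colorimetric read-out at 450 nm.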

human MASP1 = human MASP1 (Homo sapiens (Human), UniProt P48740); test: Biochemical human MASP1 assay (FRET substrate); conditions: Average IC50; recombinant human MASP1; read-out: human MASP1 IC50
Sequence of human MASP1 (P48740 other isoform, or with tags, fused parts or gaps): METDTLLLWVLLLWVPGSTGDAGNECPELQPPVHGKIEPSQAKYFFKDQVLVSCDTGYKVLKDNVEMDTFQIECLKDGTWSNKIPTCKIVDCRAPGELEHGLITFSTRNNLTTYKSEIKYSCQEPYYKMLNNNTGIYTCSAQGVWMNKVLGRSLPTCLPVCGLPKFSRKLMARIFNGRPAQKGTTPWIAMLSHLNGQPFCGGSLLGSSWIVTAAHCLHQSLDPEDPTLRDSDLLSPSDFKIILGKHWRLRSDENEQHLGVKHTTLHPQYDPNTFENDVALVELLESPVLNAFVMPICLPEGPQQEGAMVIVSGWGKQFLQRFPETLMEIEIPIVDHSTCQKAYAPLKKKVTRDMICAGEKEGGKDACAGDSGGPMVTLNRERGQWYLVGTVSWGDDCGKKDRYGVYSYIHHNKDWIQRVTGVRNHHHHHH
In short: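 Recombinant human MASP1 (aa 297-699, C-terminal His tag, HEK293-expressed, Ni-NTA purified) diluted to 20 nM in 50 mM HEPES pH 8,0, 100 mM NaCl, 0,01% CHAPS, 0.5 mM glutathione, preincubated with compound in DMSO; reaction started with 20 μM ABZ/Dnp FRET substrate solution. Fluorescence (ex 320/em 420 nm) after 60-120 min at 32 C; IC50 from % inhibition.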

human MASP2 = human MASP2 (Homo sapiens (Human), UniProt O00187); test: Biochemical human MASP2 assay (FRET substrate); conditions: Average IC50; recombinant human MASP2; read-out: human MASP2 IC50
Sequence of human MASP2 (O00187 other isoform, or with tags, fused parts or gaps): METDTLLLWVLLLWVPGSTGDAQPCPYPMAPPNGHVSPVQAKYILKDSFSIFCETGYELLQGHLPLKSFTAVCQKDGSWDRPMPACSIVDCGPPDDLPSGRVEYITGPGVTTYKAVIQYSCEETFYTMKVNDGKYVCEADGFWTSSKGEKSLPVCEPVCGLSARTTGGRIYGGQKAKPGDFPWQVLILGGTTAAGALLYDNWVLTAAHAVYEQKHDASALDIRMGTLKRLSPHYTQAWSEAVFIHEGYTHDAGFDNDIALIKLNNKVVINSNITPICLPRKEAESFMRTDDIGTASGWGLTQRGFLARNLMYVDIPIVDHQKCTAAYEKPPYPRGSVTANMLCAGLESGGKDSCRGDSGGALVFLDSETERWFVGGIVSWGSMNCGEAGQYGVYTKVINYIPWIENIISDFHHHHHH
In short: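 Mature recombinant human MASP2, expressed in HEK293 and purified by Ni-NTA affinity, was reacted with a DABCYL FRET peptide substrate (added as a 60 μM solution) for 60-120 min at 32 C. Fluorescence increase was read at ex 340/em 490 nm; IC50 was derived from % inhibition versus compound concentration.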

Compound	IC50 (rat MASP1) [nM]	IC50 (rat MASP2) [nM]	IC50 [1] [nM]	IC50 (human MASP1) [nM]	IC50 (human MASP2) [nM]
CC[C@H](C)[C@@H]1NC(=O)CCCCC(=O)NC[C@@H](C(N)=O)NC(=O)[C@H](CC(=O)O)NC(=O)[C@@H]2CCCN2C(=O)[C@H]([C@@H](C)CC)NC(=O)[C@H]2NC(=O)[C@H]([C@@H](C)CC)NC(=O)[C@@H]3CCCN3C(=O)[C@@H]3CCCN3C(=O)[C@H](CC(C)(C)C)NC(=O)[C@H](CO)NC(=O)[C@H](CCCNC(=N)N)NC(=O)[C@H](CO)NC(=O)[C@H](CSSC2(C)C)NC1=O [Example 60] (ICSRS[tBuAla]PPI[Pen]IPD[Dap]-NH2; disulfide 2-10; linker N-14 via Adipoyl)	330	13	20.5	58	5.4
CC[C@H](C)[C@@H]1NC(=O)[C@@H]2CCCN2C(=O)[C@@H]2CCCN2C(=O)[C@H](CC(C)(C)C)NC(=O)[C@H](CO)NC(=O)[C@H](CCCNC(=N)N)NC(=O)[C@H](CO)NC(=O)[C@@H]2CSSC(C)(C)[C@H](NC1=O)C(=O)N[C@@H]([C@@H](C)CC)C(=O)N1CCC[C@H]1C(=O)N1CCC[C@H]1C(=O)N[C@@H]([C@@H](C)CC)C(=O)N2 [Example 58, N-{3-[(6S,9S,12S,15S,18R,21S,23aS,28aS,34S,37R,40S,42aS,47aS)-21,34,40-tri[(2S)-butan-2-yl]-6-(2,2-dimethylpropyl)-9,15-bis(hydroxymethyl)-48,48-dimethyl-5,8,11,14,17,20,23,28,33,36,39,42,47-tridecaoxotetratetracontahydro-1H,5H,28H-18,37-(methanodithiomethano)tetrapyrrolo[1,2-a:1′,2′-d:1″,2″-p:1′″,2′″-s][1,4,7,10,13,16,19,22,25,28,31,34,37]tridecaazacyclononatriacontin-12-yl]propyl}guanidine] (cyclo(CSRS[tBuAla]PPI[Pen]IPPI); disulfide 1-9)	110	46	81.7	9	650
CC[C@H](C)[C@@H]1NC(=O)CN(C)C(=O)CCCCCNC(=O)[C@H]([C@@H](C)CC)NC(=O)[C@H]2NC(=O)[C@H]([C@@H](C)CC)NC(=O)[C@@H]3CCCN3C(=O)[C@@H]3CCCN3C(=O)[C@H](CC(C)(C)C)NC(=O)[C@H](CO)NC(=O)[C@H](CCCNC(=N)N)NC(=O)[C@H](CO)NC(=O)[C@H](CSSC2(C)C)NC1=O [Example 64, N-{3-[(5aS,11S,14S,17S,20S,23R,26S,39S,42R,45S,47aS)-26,39,45-tri[(2S)-butan-2-yl]-11-(2,2-dimethylpropyl)-14,20-bis(hydroxymethyl)-30,48,48-trimethyl-5,10,13,16,19,22,25,28,31,38,41,44,47-tridecaoxohexatetracontahydro-5H-23,42-(methanodithiomethano)dipyrrolo[2,1-1:2′,1′-o][1,4,7,10,13,16,19,22,25,28,31,34,37]tridecaazacyclotritetracontin-17-yl]propyl}guanidine] (cyclo([Ahx][Sar]ICSRS[tBuAla]PPI[Pen]I); disulfide 4-12)	157	13	17.8	9.4	12
CC[C@H](C)[C@@H]1NC(=O)CNC(=O)[C@@H](N)CCC(=O)NC[C@@H](C(N)=O)NC(=O)[C@H](CC(=O)O)NC(=O)[C@@H]2CCCN2C(=O)[C@H]([C@@H](C)CC)NC(=O)[C@H]2NC(=O)[C@H]([C@@H](C)CC)NC(=O)[C@@H]3C[C@@H]4CCCC[C@@H]4N3C(=O)[C@@H]3CCCN3C(=O)[C@H](CC(C)C)NC(=O)[C@H](CO)NC(=O)[C@H](CCCNC(=N)N)NC(=O)[C@H](CO)NC(=O)[C@H](CSSC2(C)C)NC1=O [Example 93] (H-EGICSRSLP[Oic]I[Pen]IPD[Dap]-NH2; lactam 1-16; disulfide 4-12)	410	68	274	35	45
CC[C@H](C)[C@@H]1NC(=O)[C@H](C)NC(=O)CCCCCNC(=O)[C@@H]2CCCN2C(=O)[C@H]([C@@H](C)CC)NC(=O)[C@H]2NC(=O)[C@H]([C@@H](C)CC)NC(=O)[C@@H]3CCCN3C(=O)[C@@H]3CCCN3C(=O)[C@H](CC(C)(C)C)NC(=O)[C@H](CO)NC(=O)[C@H](CCCNC(=N)N)NC(=O)[C@H](CO)NC(=O)[C@H](CSSC2(C)C)NC1=O [Example 53, N-{3-[(6S,9S,12S,15S,18R,21S,24S,33aS,39S,42R,45S,47aS,52aS)-21,39,45-tri[(2S)-butan-2-yl]-6-(2,2-dimethylpropyl)-9,15-bis(hydroxymethyl)-24,53,53-trimethyl-5,8,11,14,17,20,23,26,33,38,41,44,47,52-tetradecaoxopentacontahydro-1H,5H-18,42-(methanodithiomethano)tripyrrolo[2,1-c:2′,1′-o:2″,1″-r][1,4,7,10,13,16,19,22,25,28,31,34,37,40]tetradecaazacyclohexatetracontin-12-yl]propyl}guanidine] (cyclo(AICSRS[tBuAla]PPI[Pen]IP[Ahx]); disulfide 3-11)	96	19	44.5	6.75	83.5
CC[C@H](C)[C@@H]1NC(=O)CCCCCNC(=O)[C@H]([C@@H](C)CC)NC(=O)[C@H]2NC(=O)[C@H]([C@@H](C)CC)NC(=O)[C@@H]3CCCN3C(=O)[C@@H]3CCCN3C(=O)[C@H](CC(C)(C)C)NC(=O)[C@H](CO)NC(=O)[C@H](CCCNC(=N)N)NC(=O)[C@H](CO)NC(=O)[C@H](CSSC2(C)C)NC1=O [Example 52, N-{3-[(5aS,11S,14S,17S,20S,23R,26S,36S,39R,42S,44aS)-26,36,42-tri[(2S)-butan-2-yl]-11-(2,2-dimethylpropyl)-14,20-bis(hydroxymethyl)-45,45-dimethyl-5,10,13,16,19,22,25,28,35,38,41,44-dodecaoxodotetracontahydro-1H,5H-23,39-(methanodithiomethano)dipyrrolo[2,1-1:2′,1′-o][1,4,7,10,13,16,19,22,25,28,31,34]dodecaazacyclotetracontin-17-yl]propyl}guanidine] (cyclo([Ahx]ICSRS[tBuAla]PPI[Pen]I); disulfide 3-11)	79	11.6	23.7	7.9	9.3
CC[C@H](C)[C@@H]1NC(=O)[C@H](CN)NC(=O)[C@H](CN)NC(=O)[C@@H]2CCCN2C(=O)[C@H]([C@@H](C)CC)NC(=O)[C@H]2NC(=O)[C@H]([C@@H](C)CC)NC(=O)[C@@H]3C[C@@H]4CCCC[C@@H]4N3C(=O)[C@@H]3CCCN3C(=O)[C@H](CC(C)C)NC(=O)[C@H](CO)NC(=O)[C@H](CCCNC(=N)N)NC(=O)[C@H](CO)NC(=O)[C@H](CSSC2(C)C)NC1=O [Example 89]	290	64	18.5	5.7	91
